# Molecular target: T1, hTLR9 (Homo sapiens, UniProt Q9NR96)
# T1 sequence (Q9NR96 26-1032): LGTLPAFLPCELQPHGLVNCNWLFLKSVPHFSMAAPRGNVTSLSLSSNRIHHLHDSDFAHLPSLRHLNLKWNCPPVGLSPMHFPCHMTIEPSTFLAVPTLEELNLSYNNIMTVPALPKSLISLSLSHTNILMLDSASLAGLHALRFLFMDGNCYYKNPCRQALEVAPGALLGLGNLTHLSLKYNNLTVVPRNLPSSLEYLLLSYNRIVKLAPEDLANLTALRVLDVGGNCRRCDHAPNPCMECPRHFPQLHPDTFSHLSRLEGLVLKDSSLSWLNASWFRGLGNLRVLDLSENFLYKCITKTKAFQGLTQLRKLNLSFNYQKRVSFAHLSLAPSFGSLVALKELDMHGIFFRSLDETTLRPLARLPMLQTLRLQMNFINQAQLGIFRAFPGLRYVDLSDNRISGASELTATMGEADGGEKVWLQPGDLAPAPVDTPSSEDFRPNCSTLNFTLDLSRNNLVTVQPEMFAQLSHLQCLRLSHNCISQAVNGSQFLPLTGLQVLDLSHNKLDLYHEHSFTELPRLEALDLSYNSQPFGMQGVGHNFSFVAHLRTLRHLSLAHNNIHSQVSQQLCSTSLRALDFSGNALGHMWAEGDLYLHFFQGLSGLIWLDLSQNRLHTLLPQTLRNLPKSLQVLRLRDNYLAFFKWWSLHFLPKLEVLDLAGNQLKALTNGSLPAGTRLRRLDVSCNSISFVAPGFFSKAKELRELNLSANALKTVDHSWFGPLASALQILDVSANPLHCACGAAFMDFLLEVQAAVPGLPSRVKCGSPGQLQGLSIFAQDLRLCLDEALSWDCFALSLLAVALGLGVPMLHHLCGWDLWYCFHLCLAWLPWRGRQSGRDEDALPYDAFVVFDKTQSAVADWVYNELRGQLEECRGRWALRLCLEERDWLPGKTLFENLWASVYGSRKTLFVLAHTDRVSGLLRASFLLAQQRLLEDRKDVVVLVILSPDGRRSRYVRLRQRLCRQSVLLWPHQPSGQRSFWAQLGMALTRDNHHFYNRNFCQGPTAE
# Assay: HEK293-Blue-hTLR-9 cells assay (SEAP reporter, ODN2006 stimulation)
# Assay type: cell-based
# Conditions: HEK293-Blue-hTLR9 cells, ODN2006, 20 hrs; 0.032 is the lowest tested concentration; read-out: HEK/hTLR9 IC50
# In short: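 HEK293-Blue cells with an NF-κB/AP-1-driven SEAP reporter were exposed to serially diluted compound (1% DMSO final) plus ODN2006 for 20 h at 37 °C. Supernatant SEAP was developed with QUANTI-Blue for 2 h at 37 °C and absorbance read at 620–655 nm; antagonism appears as reduced reporter signal.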
row,Structure (SMILES),IC50
1,"C[C@@H]1CN(c2ccc(C#N)c3ncccc23)C[C@H](CN2Cc3ccc(N4CC(N)C4)cc3C2)O1 [Example 77, 5-[(2S,6R)-2-[[5-(3-aminoazetidin-1-yl)isoindolin-2-yl]methyl]-6-methyl-morpholin-4-yl]quinoline-8-carbonitrile]",239 nM
2,"C[C@@H]1CN(c2ccc(C#N)c3ncccc23)C[C@H](CN2Cc3ccc(N4CCNCC4)cc3C(O)C2)O1 (stereo partly drawn) [Example 75, 5-[(2S,6R)-2-[(4-hydroxy-6-piperazin-1-yl-3,4-dihydro-1H-isoquinolin-2-yl)methyl]-6-methyl-morpholin-4-yl]quinoline-8-carbonitrile]",55 nM
3,"C[C@@H]1CN(c2ccc(C#N)c3ncccc23)C[C@H](CN2Cc3ccc(N4CC5CCC(C4)N5)cc3C2)O1 [Example 42, 5-[(2S,6R)-2-[[5-(3,8-diazabicyclo[3.2.1]octan-3-yl)isoindolin-2-yl]methyl]-6-methyl-morpholin-4-yl]quinoline-8-carbonitrile]",97 nM
4,"C[C@@H]1CN(c2ccc(Cl)c3nccnc23)C[C@H](CN2Cc3ccc(N4CCNCC4)cc3C2)O1 [Example 33, (2R,6S)-4-(8-chloroquinoxalin-5-yl)-2-methyl-6-[(5-piperazin-1-ylisoindolin-2-yl)methyl]morpholine]",174 nM
5,"C[C@@H]1CN(c2ccc(C#N)c3ncccc23)C[C@H](CN2Cc3cnc(N4CCNCC4)nc3C2)O1 [Example 63, 5-[(2R,6S)-2-methyl-6-[(2-piperazin-1-yl-5,7-dihydropyrrolo[3,4-d]pyrimidin-6-yl)methyl]morpholin-4-yl]quinoline-8-carbonitrile]",120 nM
6,"C[C@@H]1CN(c2ccc(C#N)n3nccc23)C[C@H](CNCc2ccc(N3CCNCC3)cc2)O1 [Example 16, 4-[(2R,6S)-2-methyl-6-[[(4-piperazin-1-ylphenyl)methylamino]methyl]morpholin-4-yl]pyrazolo[1,5-a]pyridine-7-carbonitrile]",82 nM
7,"C[C@@H]1CN(c2ccc(C#N)c3ncccc23)C[C@H](CNCc2ccccc2)O1 [ER-886509, reference compound]",2080 nM

# Reference: patent EP3623369A1, “NOVEL MORPHOLINYL AMINE COMPOUNDS FOR THE TREATMENT OF AUTOIMMUNE DISEASE” (F. Hoffmann-La Roche AG, priority 2018, dated 2020)
